These results are taken from patent US9981940B2, “Aryl sulfide derivatives and aryl sulfoxide derivatives as acaricides and insecticides” (BAYER CROPSCIENCE AKTIENGESELLSCHAFT, priority 2013, dated 2018).

Molecules are shown by their SMILES.

Series [1] deals with Meloidogyne incognita. Briefly: Meloidogyne incognita test (MELGIN). The settings on record: application rate of 20 ppm; after 14 days, by formation of galls. It is filed as in vivo. As to the method:
Meloidogyne Incognita Test (MELGIN)
• Solvent: 125.0 parts by weight of acetone
To produce an appropriate active ingredient formulation, 1 part by weight of active ingredient is mixed with the specified amounts of solvent and the concentrate is diluted to the desired concentration with water.
Vessels are filled with sand, active ingredient solution, an egg/larvae suspension of the southern root-knot nematode (Meloidogyne incognita) and lettuce seeds. The lettuce seeds germinate and the plants develop. The galls develop on the roots
After 14 days, the nematicidal efficacy in % is determined by the formation of galls. 100% means that no galls have been found; 0% means that the number of galls on the treated plants corresponds to the untreated control.

Series [2] can be described thus: log P by HPLC (OECD Guideline 117), method [a] acidic range. Type of series: physicochemical. The settings on record: for logP[a]: HPLC, method [a] acidic range; for chromatographic logP: reversed-phase C18 HPLC column, acidic range. The procedure:
(§1) The log P values were determined analogously to OECD Guideline 117 (EC Directive 92/69/EEC) by HPLC (high-performance liquid chromatography) using reversed-phase columns (C 18), by the following methods:
[a] The LC-MS determination in the acidic range is effected at pH 2.7 with 0.1% aqueous formic acid and acetonitrile (contains 0.1% formic acid) as eluents; linear gradient from 10% acetonitrile to 95% acetonitrile.

Series [3] is described as follows: log P by HPLC (OECD Guideline 117), method [b] neutral range. It is filed as physicochemical. The settings on record: HPLC; for logP[b]: method [b] neutral range; for chromatographic logP: reversed-phase C18 HPLC column, neutral range, pH 7.8. The procedure:
as §1
[b] The LC-MS determination in the neutral range is effected at pH 7.8 with 0.001 molar aqueous ammonium hydrogencarbonate solution and acetonitrile as eluents; linear gradient from 10% acetonitrile to 95% acetonitrile.

For series [4], the system named is Boophilus microplus. The experiment in a line: Boophilus microplus injection test (BOOPMI Inj). It is filed as in vivo. The following applies: application rate of 20 μg/animal, assessed after 7 days by laying of fertile eggs. As to the method:
Use Examples Boophilus microplus Injection Test (BOOPMI Inj) • Solvent: dimethyl sulphoxide
To prepare an appropriate active ingredient formulation, 10 mg of active ingredient are mixed with 0.5 ml of solvent and the concentrate is diluted with solvent to the desired concentration.
1 μl of the active ingredient solution is injected into the abdomen of 5 engorged adult female cattle ticks (Boophilus microplus). The animals are transferred into dishes and kept in a climate-controlled room.
The efficacy is assessed after 7 days by laying of fertile eggs. Eggs which are not visibly fertile are stored in a climate-controlled cabinet until the larvae hatch after about 42 days.
An efficacy of 100% means that none of the ticks has laid any fertile eggs; 0% means that all the eggs are fertile.

The test system of series [5] is Phaedon cochleariae. The experiment in a line: Phaedon cochleariae spray test (PHAECO). The settings on record: application rate of 500 g/ha, after 7 days; for pest or weed control at 500 g/ha: Phaedon cochleariae, 168 h, read-out: efficacy. Type of series: in vivo. The procedure:
Phaedon cochleariae—Spray Test (PHAECO)
• Solvent: 78.0 parts by weight of acetone • 1.5 parts by weight of dimethylformamide • Emulsifier: 0.5 part by weight of alkylaryl polyglycol ether
To produce an appropriate active ingredient formulation, 1 part by weight of active ingredient is mixed with the specified amounts of solvent and emulsifier, and the concentrate is diluted to the desired concentration with emulsifier-containing water.
Discs of Chinese cabbage leaves (Brassica pekinensis) are sprayed with an active ingredient formulation of the desired concentration and, after drying, populated with larvae of the mustard beetle (Phaedon cochleariae).
After 7 days, the efficacy in % is determined 100% means that all beetle larvae have been killed; 0% means that none of the beetle larvae have been killed.

Series [6] relates to Tetranychus urticae. Briefly: Tetranychus urticae spray test, OP-resistant (TETRUR). The following applies: application rate of 500 g/ha, after 6 days; for pest or weed control at 500 g/ha: Tetranychus urticae, 144 h, read-out: efficacy. It is filed as in vivo. The gist of the method: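 Mortality as % efficacy (0% = no mites killed) read 6 days after spraying. Formulation: active ingredient in acetone/dimethylformamide plus emulsifier, diluted with emulsifier-containing water, applied to Phaseolus vulgaris leaf discs carrying every life stage of OP-resistant spider mites.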

Where [7] appears, read: pH 2.7, HPLC method [a], read-out: logP[a].
[8] abbreviates: pH 2.7, HPLC, pH 2.7, read-out: log P[a].

Regarding `C=C(C)CCOc1nn(-c2ccc(C)c([S+]([O-])CC(F)(F)F)c2)c(=O)n1C1CC1` (centres unmarked) [Example 139], the nematicidal efficacy in series [1] is reported as 90%. For the same compound, the “logP[a]” value in series [2] was 3.67. Moreover, in series [3], the “logP[b]” value worked out at 3.60.
On the same counts, the results for `COc1nn(-c2cc(SCC(F)(F)F)c(Cl)cc2Cl)c(=O)n1C1CC1` [Example 107] are 90%, 3.46 and 3.42.
The corresponding values for `CCC(C)Oc1nn(-c2ccc(C)c(SCC(F)(F)F)c2)c(=O)n1C1CC1` (centres unmarked) [Example 142] are 90%, 5.01 and 4.96.
On the same counts, the results for `Cc1ccc(-n2nc(OCC3CC3)n(C3CC3)c2=O)cc1SCC(F)(F)F` [Example 135] are 90%, 4.60 and 4.56.
As for `COc1nn(-c2ccc(Br)c([S+]([O-])CC(F)(F)F)c2)c(=O)n1C1CC1` (centres unmarked) [Example 110], the nematicidal efficacy in series [1] was determined as 100%. For the same compound, in series [2], the “logP[a]” value is 3.00. The “logP[b]” value in series [3] is listed as 2.95.
The corresponding values for `COc1nn(-c2ccc(Cl)c(SCC(F)(F)F)c2)c(=O)n1C1CC1` [Example 108] are 90%, 3.91 and 3.84.
The corresponding values for `COc1nn(-c2ccc(C#N)c([S+]([O-])CC(F)(F)F)c2)c(=O)n1C1CC1` (centres unmarked) [Example 118] are 100%, 2.47 and 2.43.
On the same counts, the results for `C=C(C)CCOc1nn(-c2ccc(C)c(SCC(F)(F)F)c2)c(=O)n1C1CC1` [Example 138] are 90%, 5.01 and 4.96.
Consider `Cc1cc(F)c(-n2nc(C(F)(F)F)n(N(C)C)c2=O)cc1SCC(F)(F)F` [Example 214], for which the nematicidal efficacy in series [1] came out at 90%. Also, in series [2], the “logP[a]” value came out at 4.24. Besides, the “logP[b]” value in series [3] came out at 4.15.
Consider `COC1=CC(=O)N(c2ccc(C(F)(F)F)c([S+]([O-])CC(F)(F)F)c2)C1` (centres unmarked) [Example 321], for which the efficacy in series [4] and in series [5] was 100% in each case. Further, the “logP[a]” value in series [2] amounted to 2.61. Besides, the “logP[b]” value in series [3] was found to be 2.55.
Regarding `COc1nn(-c2cc(SCC(F)(F)F)c(C)cc2F)c(=O)n1CC1CC1` [Example 390], the efficacy in series [4], in series [5] and in series [6] was 100% in each case. Further, the “logP[a]” value in series [2] is 3.64. Also, the “logP[b]” value in series [3] was 3.58.
Take `Cc1cc(F)c(N2CC(OCc3ccccc3)=CC2=O)cc1[S+]([O-])CC(F)(F)F` (centres unmarked) [Example 323]: in series [1], the nematicidal efficacy worked out at 90%. Moreover, in series [2], the “logP[a]” value was found to be 2.87. The “logP[b]” value in series [3] worked out at 2.81.
On to `CC(C)(C)COc1nn(-c2cc(SCC(F)(F)F)c(Cl)cc2F)c(=O)n1C1CC1` [Example 394], for which the figures for the efficacy in series [5] and in series [6] were 83% and 100%, respectively. Moreover, the “logP[a]” value in series [2] is on record as 4.95. The “logP[b]” value in series [3] is on record as 4.89.
Turning to `COc1nn(-c2ccc(Br)c(SCC(F)(F)F)c2)c(=O)n1C1CC1` [Example 111], in series [1], the nematicidal efficacy was 100%. In series [2], the “logP[a]” value worked out at 4.01. Besides, the “logP[b]” value in series [3] amounted to 3.93.
`CCN(CC)c1nn(-c2cc([S+]([O-])CC(F)(F)F)c(C)cc2F)c(=O)n1N` (centres unmarked) [Example 223]: the efficacy in series [5] was 100%; in series [6] it was 90%. Moreover, in series [2], the “logP[a]” value is recorded as 2.23. For the same compound, the “logP[b]” value in series [3] was found to be 2.18.
On the same counts, the results for `C=CCn1c(OC)nn(-c2ccc(C)c(SCC(F)(F)F)c2)c1=O` [Example 176] are 100%, 90%, 3.87 and 3.81.
The corresponding values for `COCCOC1=CC(=O)N(c2cc(SCC(F)(F)F)c(C)cc2F)C1` [Example 328] are 100%, 90%, 2.86 and 2.82.
In the case of `Cc1cc(F)c(-n2nnn(C)c2=S)cc1SCC(F)(F)F` [Example 447, 1-{2-Fluoro-4-methyl-5-[(2,2,2-trifluoroethyl)sulphanyl]phenyl}-4-methyl-1,4-dihydro-5H-tetrazole-5-thione], the pest or weed control at 500 g/ha in series [5] and in series [6] was 100% each time. The chromatographic logP in series [2] (setting [7]) worked out at 3.51; in series [2] (setting [8]), 3.51; in series [3], 3.49.
With `Cc1cc(F)c(-n2nc(Cl)n(C)c2=O)cc1[S+]([O-])CC(F)(F)F` (centres unmarked) [Example 437], the figures for the efficacy in series [5] and in series [6] were 83% and 90%, respectively. The “logP[a]” value in series [2] is listed as 2.00. For the same compound, the “logP[b]” value in series [3] turned out to be 1.98.
Regarding `Cc1ccc(-n2nc(OC(C)(C)C)n(C)c2=O)cc1SCC(F)(F)F` [Example 154], the results for the efficacy in series [5] and in series [6] were 83% and 100%, respectively. Besides, the “logP[a]” value in series [2] is recorded as 4.55. The “logP[b]” value in series [3] is listed as 4.45.
With `Cc1cc(F)c(-n2ncn(-c3ccccc3)c2=O)cc1SCC(F)(F)F` [Example 351], the efficacy in series [5] and in series [6] was 100% in each case. For the same compound, the “logP[a]” value in series [2] turned out to be 3.43. The “logP[b]” value in series [3] was 3.36.
`Cc1cc(F)c(-n2nc(C)n(N)c2=O)cc1[S+]([O-])CC(F)(F)F` (centres unmarked) [Example 209]: the results for the efficacy in series [5] and in series [6] were 83% and 100%, respectively. The “logP[a]” value in series [2] is listed as 1.36. For the same compound, the “logP[b]” value in series [3] is reported as 1.34.
As for `Cc1cc(F)c(-n2nc(OCC(Cl)(Cl)Cl)n(C)c2=O)cc1[S+]([O-])CC(F)(F)F` (centres unmarked) [Example 392], the values for the efficacy in series [4], in series [5] and in series [6] were 100%, 100% and 90%, respectively. In addition, the “logP[a]” value in series [2] is on record as 3.13. Also, the “logP[b]” value in series [3] is 3.09.
On to `Cc1cc(F)c(-n2ncn(-c3ccc(F)cc3)c2=O)cc1SCC(F)(F)F` [Example 349], for which the efficacy in series [5] is reported as 100%; in series [6], 90%. Moreover, in series [2], the “logP[a]” value is on record as 3.48. The “logP[b]” value in series [3] came out at 3.40.
Take `Cc1ccc(-n2nc(OCC3CC3)n(C)c2=O)cc1SCC(F)(F)F` [Example 145]: in series [1], the nematicidal efficacy was found to be 100%. Besides, in series [2], the “logP[a]” value was determined as 4.20. The “logP[b]” value in series [3] turned out to be 4.19.
Turning to `Cc1cc(F)c(N2CC(OC3CCCC3)=CC2=O)cc1SCC(F)(F)F` [Example 329, 4-(Cyclopentyloxy)-1-{2-fluoro-4-methyl-5-[(2,2,2-trifluoroethyl)sulphanyl]phenyl}-1,5-dihydro-2H-pyrrol-2-one], the pest or weed control at 500 g/ha worked out at 100% in series [5] and 90% in series [6]. The results for the chromatographic logP in series [2] (setting [7]), in series [2] (setting [8]) and in series [3] were 4.2, 4.2 and 4.06, respectively.
With `Cc1cc(F)c(N2CC(OC3CCCC3)=CC2=O)cc1[S+]([O-])CC(F)(F)F` (centres unmarked) [Example 336, 4-(Cyclopentyloxy)-1-{2-fluoro-4-methyl-5-[(2,2,2-trifluoroethyl)sulphinyl]phenyl}-1,5-dihydro-2H-pyrrol-2-one], the pest or weed control at 500 g/ha in series [5] is 83%; in series [6] it was 90%. The chromatographic logP is 2.97 in series [2] (setting [7]), 2.97 in series [2] (setting [8]) and 2.91 in series [3].
